Results as given in ChEMBL document CHEMBL1201862, “PubChem BioAssay data set” (2004).
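1) Cells in 96-well plates. 2) Compound, 48 h, 5 concentrations. 3) Linear interpolation between surrounding doses. 4) Unreached endpoint = highest concentration. GI50 = concentration required for 50% inhibition of growth.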 The source made the active and inactive calls. Cut-off read from the data, not from the text of the source: active = GI50 up to about 1.1 µM and inactive = higher.

What was measured:
Test in all cases: DTP human tumour cell line panel, 48 h
786-0 = test system: 786-0
A498 = test system: A498
A549 = test system: A549
ACHN = test system: ACHN
BT-549 = test system: BT-549
CAKI-1 = test system: CAKI-1
CCRF-CEM = test system: CCRF-CEM
COLO 205 = test system: COLO 205
DLD-1 = test system: DLD-1
DMS-114 = test system: DMS-114
DMS-273 = test system: DMS-273
DU-145 = test system: DU-145
EKVX = test system: EKVX
HCT-116 = test system: HCT-116
HCT-15 = test system: HCT-15
HL-60 = test system: HL-60
HOP-18 = test system: HOP-18
HOP-62 = test system: HOP-62
HOP-92 = test system: HOP-92
HT-29 = test system: HT-29
Hs-578T = test system: Hs-578T
IGROV-1 = test system: IGROV-1
K562 = test system: K562
KM-20L2 = test system: KM-20L2
KM12 = test system: KM12
LOX IMVI = test system: LOX IMVI
LXFL 529 = test system: LXFL 529
M14 = test system: M14
M19-MEL = test system: M19-MEL
MCF7 = test system: MCF7
MDA-MB-231 = test system: MDA-MB-231
MDA-MB-435 = test system: MDA-MB-435
MDA-N = test system: MDA-N
MOLT-4 = test system: MOLT-4
Malme-3M = test system: Malme-3M
NCI-H226 = test system: NCI-H226
NCI-H23 = test system: NCI-H23
NCI-H460 = test system: NCI-H460
NCI-H522 = test system: NCI-H522
NCI/ADR-RES = test system: NCI/ADR-RES
OVCAR-3 = test system: OVCAR-3
OVCAR-4 = test system: OVCAR-4
OVCAR-5 = test system: OVCAR-5
OVCAR-8 = test system: OVCAR-8
PC-3 = test system: PC-3
RPMI-8226 = test system: RPMI-8226
RXF 393 = test system: RXF 393
SF-268 = test system: SF-268
SF-295 = test system: SF-295
SF-539 = test system: SF-539
SK-MEL-28 = test system: SK-MEL-28
SK-MEL-2 = test system: SK-MEL-2
SK-MEL-5 = test system: SK-MEL-5
SK-OV-3 = test system: SK-OV-3
SN12C = test system: SN12C
SNB-19 = test system: SNB-19
SNB-78 = test system: SNB-78
SR = test system: SR
SW-620 = test system: SW-620
T47D = test system: T47D
TK-10 = test system: TK-10
U-251 = test system: U-251
UACC-257 = test system: UACC-257
UACC-62 = test system: UACC-62
UO-31 = test system: UO-31
XF498 = test system: XF498
HCC 2998 = test system: HCC 2998
RXF 631 = test system: RXF 631
SNB-75 = test system: SNB-75

Compound: O=C(CSc1ncnc2[nH]cnc12)c1ccccc1
- GI50 (786-0): > 100 µM (inactive)
- GI50 (A498): > 100 µM (inactive)
- GI50 (A549): > 100 µM (inactive)
- GI50 (ACHN): > 100 µM (inactive)
- GI50 (BT-549): > 100 µM (inactive)
- GI50 (CAKI-1): 75.2 µM (inactive)
- GI50 (CCRF-CEM): > 65.8 µM (inactive)
- GI50 (COLO 205): > 91 µM (inactive)
- GI50 (DLD-1): > 100 µM (inactive)
- GI50 (DMS-114): > 100 µM (inactive)
- GI50 (DMS-273): > 100 µM (inactive)
- GI50 (DU-145): > 100 µM (inactive)
- GI50 (EKVX): > 100 µM (inactive)
- GI50 (HCT-116): > 100 µM (inactive)
- GI50 (HCT-15): > 100 µM
- GI50 (HL-60): > 100 µM (inactive)
- GI50 (HOP-18): > 100 µM (inactive)
- GI50 (HOP-62): > 100 µM (inactive)
- GI50 (HOP-92): 50.2 µM (inactive)
- GI50 (HT-29): > 100 µM (inactive)
- GI50 (Hs-578T): > 100 µM (inactive)
- GI50 (IGROV-1): > 100 µM (inactive)
- GI50 (K562): 41.3 µM (inactive)
- GI50 (KM-20L2): > 100 µM (inactive)
- GI50 (KM12): > 41.1 µM (inactive)
- GI50 (LOX IMVI): 79.4 µM (inactive)
- GI50 (LXFL 529): > 100 µM (inactive)
- GI50 (M14): > 88.3 µM (inactive)
- GI50 (M19-MEL): > 100 µM (inactive)
- GI50 (MCF7): > 100 µM (inactive)
- GI50 (MDA-MB-231): > 100 µM (inactive)
- GI50 (MDA-MB-435): > 100 µM (inactive)
- GI50 (MDA-N): 86.3 µM (inactive)
- GI50 (MOLT-4): > 65.6 µM (inactive)
- GI50 (Malme-3M): > 100 µM (inactive)
- GI50 (NCI-H226): > 100 µM (inactive)
- GI50 (NCI-H23): > 100 µM (inactive)
- GI50 (NCI-H460): > 100 µM (inactive)
- GI50 (NCI-H522): 47.4 µM (inactive)
- GI50 (NCI/ADR-RES): 96.4 µM (inactive)
- GI50 (OVCAR-3): > 100 µM (inactive)
- GI50 (OVCAR-4): > 48 µM (inactive)
- GI50 (OVCAR-5): > 57.1 µM (inactive)
- GI50 (OVCAR-8): > 100 µM (inactive)
- GI50 (PC-3): > 100 µM (inactive)
- GI50 (RPMI-8226): > 64.3 µM (inactive)
- GI50 (RXF 393): > 76.2 µM (inactive)
- GI50 (SF-268): > 100 µM (inactive)
- GI50 (SF-295): > 100 µM (inactive)
- GI50 (SF-539): > 100 µM (inactive)
- GI50 (SK-MEL-28): > 100 µM (inactive)
- GI50 (SK-MEL-2): > 43.2 µM (inactive)
- GI50 (SK-MEL-5): 86.3 µM (inactive)
- GI50 (SK-OV-3): > 100 µM (inactive)
- GI50 (SN12C): > 100 µM (inactive)
- GI50 (SNB-19): > 100 µM (inactive)
- GI50 (SNB-78): > 100 µM (inactive)
- GI50 (SR): 92.5 µM (inactive)
- GI50 (SW-620): > 100 µM (inactive)
- GI50 (T47D): > 100 µM (inactive)
- GI50 (TK-10): > 66.7 µM (inactive)
- GI50 (U-251): > 100 µM (inactive)
- GI50 (UACC-257): > 100 µM (inactive)
- GI50 (UACC-62): > 100 µM (inactive)
- GI50 (UO-31): > 95.7 µM (inactive)
- GI50 (XF498): > 100 µM (inactive)

Compound: COc1ccc2oc(-c3ccncc3)cc(=O)c2c1
- GI50 (786-0): > 100 µM (inactive)
- GI50 (A498): > 100 µM (inactive)
- GI50 (ACHN): > 100 µM (inactive)
- GI50 (CAKI-1): 33.2 µM (inactive)
- GI50 (CCRF-CEM): 81.1 µM (inactive)
- GI50 (COLO 205): > 100 µM (inactive)
- GI50 (DLD-1): > 100 µM (inactive)
- GI50 (DMS-114): > 100 µM (inactive)
- GI50 (DMS-273): 62.8 µM (inactive)
- GI50 (HCC 2998): > 100 µM (inactive)
- GI50 (HCT-116): > 100 µM (inactive)
- GI50 (HCT-15): > 100 µM
- GI50 (HL-60): > 100 µM (inactive)
- GI50 (HOP-62): > 100 µM (inactive)
- GI50 (HOP-92): 37.5 µM (inactive)
- GI50 (HT-29): > 100 µM (inactive)
- GI50 (IGROV-1): 82 µM (inactive)
- GI50 (K562): > 100 µM (inactive)
- GI50 (KM12): 84.5 µM (inactive)
- GI50 (LOX IMVI): 57.5 µM (inactive)
- GI50 (LXFL 529): > 100 µM (inactive)
- GI50 (M14): > 100 µM (inactive)
- GI50 (MOLT-4): 25.2 µM (inactive)
- GI50 (Malme-3M): 39.8 µM (inactive)
- GI50 (NCI-H226): > 100 µM (inactive)
- GI50 (NCI-H23): > 100 µM (inactive)
- GI50 (NCI-H460): > 100 µM (inactive)
- GI50 (OVCAR-3): > 100 µM (inactive)
- GI50 (OVCAR-4): > 100 µM (inactive)
- GI50 (OVCAR-5): > 100 µM (inactive)
- GI50 (RPMI-8226): > 100 µM (inactive)
- GI50 (RXF 393): > 100 µM (inactive)
- GI50 (RXF 631): 40.5 µM (inactive)
- GI50 (SF-268): 67.6 µM (inactive)
- GI50 (SF-295): > 100 µM (inactive)
- GI50 (SK-MEL-28): > 100 µM (inactive)
- GI50 (SK-MEL-2): > 100 µM (inactive)
- GI50 (SN12C): 38.7 µM (inactive)
- GI50 (SNB-19): > 100 µM (inactive)
- GI50 (SNB-75): > 100 µM (inactive)
- GI50 (U-251): 73.3 µM (inactive)
- GI50 (UACC-257): > 100 µM (inactive)
- GI50 (UACC-62): 65.2 µM (inactive)
- GI50 (UO-31): > 100 µM (inactive)
- GI50 (XF498): > 100 µM (inactive)
